The results in this text go back to paper PMC5459853, “Cathepsin S inhibition combines control of systemic and peripheral pathomechanisms of autoimmune tissue injury” (Scientific Reports, 2017).

The term IC50 denotes the point on the concentration scale where inhibition reaches its midpoint.

Structures are written as SMILES.

Data set [1] in a line: Acute in vivo pharmacodynamics: splenic p10 induction after oral gavage. On the set-up: species or system BALB/c mice. The note with it: BALB/c, mouse, plasma; oral gavage 1 mg/kg; read-out: plasma concentration of the inhibitor at maximal p10 induction. How it is done: (§1) For the determination of in-vivo enzyme inhibition activity of Cat-S by RO5459072 BALB/c mice were used. After oral dosing of 0.1 mg/kg to 100 mg/kg of RO5459072, mice were sacrificed after 7 hours and spleens harvested. Invariant chain was quantified by western blot from mouse splenocyte supernatants loaded onto 10% SDS-PAGE gel. Upon transfer onto a nitrocellulose membrane rabbit anti-CD74 (BD Biosciences) was used.
(§2) Supplementary figure 1. Biochemical and pharmacological profile of R05459072. (A) Upregulation of invariant chain p10 levels in human B-cells was estimated by p10 ELISA, upon treatment with increasing concentration of RO5459072. […]
(§3) upregulation in B-cells derived from 6 healthy volunteers. (B) Determination of KM for the fluorogenic substrate Z-Phe-Arg-AMC. (C) Progress curves of hydrolysis of 10 µM Z-Phe-Arg-AMC by 10 nM Cat-S in the presence of no (black dots) or increasing concentration of RO5459072. A linear equation was fitted to the data to determine the slope (solid lines). […]
(§4) the residuals of the fit to the data. (D) Secondary plot of the slopes from panel B as function of RO5459072 concentration (dots with color coding from panel B). The Morrison equation was […]
(§5) active Cat-S converged to [E]0 = 6.9 nM). The dashed red lines indicate the 95 % confidence intervals of the fit to the data. (E) Pharmacodynamics of R05459072 was determined in C57Bl6 mice with increasing amounts of compound as single dose. Plasma levels of compounds were correlated to the upregulation of p10 in spleenocytes.
(§6) Supplementary figure 2. FACS gating strategies used for the different splenic immune cell populations. (A-C) Activated dendritic cells CD11c+CD11b+MHC-II, (D-F) activated macrophages CD11c+F480+MHC-II and (G-H) plasma cells CD138+κ-light chain+
(§7) Supplementary figure 3. Plasma IgG isotypes in MRL-(Fas)lpr mice. Plasma levels of IgG1 (A), IgG2a (B), and IgG2b (C) were determined by ELISA at different time points from the initiation (week 11) to the end of treatment (week 19). Data are expressed as means ± SEM (n=8 to 10 in […]

Data set [2] has as its target T1, Cat-S (splenic p10 induction) (Mus musculus, UniProt O70370).
T1 construct: from tissue; host or cells: mouse spleen / splenocytes after oral dosing
The description is as above. Also noted: species or system BALB/c mice. Here is the method: as §1, §2, §3, §4, §5, §6, §7

For data set [3], the target named is Human Cat-V (Homo sapiens, UniProt O60911). As to the kind of experiment: Enzymatic isoform-selectivity assay, Cat-V. The format is biochemical. The note with it: read-out: apparent IC50, Cat V. How it is done: (§8) RO5459072 was provided by F. Hoffmann-La Roche, Ltd., Basel, Switzerland. It is a competitive inhibitor of the active site of Cat-S and its nitrile function allows covalent reversible inhibition of Cat-S. The synthesis of RO5459072 has been described in WO 2010121918 and WO 2013068434. Recombinant cathepsins were produced in-house or were purchased from commercial vendors. Initial enzymatic assays to determine isoform-selectivity in vitro were performed as previously described, [23]. […] For this the Cat-S-dependent hydrolysis of the fluorogenic substrate Z-Phe-Arg-AMC (Sigma Aldrich) was followed at various inhibitor concentrations. The active fraction of Cat-S was detemined as 70% with a HPLC assay measuring modification of Cat-S with the covalent inhibitor LHVS. The buffer (100 mM potassium phosphate, 50 mM NaCl, 5 mM EDTA, 5 mM TCEP, pH 6) was thoroughly degassed prior to perfoming measurements to prevent oxidation of the catalytic cystein residue by dissolved oxygen. For the Ki-determination the substrate was employed at 10 µM = KM. All kinetic measurements were performad on a SFM-3000 stopped-flow instrument (Bio-Logic Science Instruments) and data were analyzed with GraphPad Prism v5.
Chain of Human Cat-V (O60911 114-334): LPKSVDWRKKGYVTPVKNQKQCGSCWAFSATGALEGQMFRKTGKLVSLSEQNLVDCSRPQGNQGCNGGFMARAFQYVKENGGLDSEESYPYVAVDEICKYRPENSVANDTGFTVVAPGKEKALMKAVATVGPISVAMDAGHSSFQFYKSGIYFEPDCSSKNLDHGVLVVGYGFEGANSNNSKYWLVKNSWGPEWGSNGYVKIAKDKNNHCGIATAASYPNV

Data set [4] deals with Mouse Cat-S (Mus musculus, UniProt O70370). The experiment in a line: Enzymatic isoform-selectivity assay, mouse Cat-S. The format is biochemical. The note with it: read-out: apparent IC50, murine Cat-S. Here is the method:
as §8

As for `Cn1cc(-c2ccc(S(=O)(=O)[C@@H]3C[C@@H](C(=O)NC4(C#N)CC4)N(C(=O)C4(C(F)(F)F)CC4)C3)c(C(F)(F)F)c2)cn1` [RO5459072], the concentration at 7 h in data set [1] came to 17 nM. Further, in data set [2] (oral gavage, single doses 0.1–100 mg/kg, spleens after 7 hours), the “dose of maximal splenic p10 induction” value is on record as 1 mg/kg. Besides, the EC50 in data set [2] (single oral dose, mice, read-out: p10/li in vivo EC50 (plasma level vs p10 upregulation in splenocytes)) stood at 0.017 µM. The concentration for half-maximal inhibition (IC50) in data set [3] is 0.7 µM; in data set [4], 0.0003 µM.
